Patent publication US20140287024A1, “NANOPARTICLE-BASED DELIVERY SYSTEM WITH OXIDIZED PHOSPHOLIPIDS AS TARGETING LIGANDS FOR THE PREVENTION, DIAGNOSIS AND TREATMENT OF ATHEROSCLEROSIS” (priority 2013, published 2014)

Key:
[1] = target: macrophage CD36 (Homo sapiens, UniProt P16671); conditions: cited from earlier work
[2] = tested on: cuff-induced evolving atherosclerotic lesion; conditions: apolipoprotein E null mice, daily intraperitoneal 10 mg/kg body weight, after 21 days treatment; cited from earlier work
[3] = tested on: macrophages and macrophage-derived foam cells; conditions: in vitro; cited from earlier work
[4] = in vitro; cited from earlier work
[5] = Stability of NLCE, CSNLCE and native EGCG in PBS at different pH and temperatures (HPLC); format: physicochemical
Method: EGCG was detected using a high-performance liquid chromatography (HPLC) system (Waters Corporation, Milford, Mass.) with a UV detector and a ZORBAX SB-C18.5 μm, 150*4.6 mm (Agilent,). The mobile phase was composed of 86% water, 12% acetonitrile, 2% ethyl acetate and 0.043% sulfuric acid, and the flow rate was 1 ml/minute. EGCG was detected at 254 nm.
To determine the stability of NLCE, CSNLCE and native EGCG in a pH range 1-7.4, Hydrochloric acid was added into 200 mM phosphate buffered saline to obtain four different pH solutions (pH=1, 3, 5, 7.4). All samples were then dissolved in these solutions to obtain a final EGCG concentration of 100 μM. The solutions were stored in tightly closed vials and incubated in a 37° C. water bath. EGCG concentrations were measured at 0 h, 0.5 h, 1 h, 1.5 h, 2 h, 2.5 hand 3 h.
[…] To simulate the cell growth, stability was evaluated in the cell culture medium RPMI1640 at 37° C. with or without cells, and with or without superoxide dismutases (SOD, 5 U/ml).

[6] = tested on: MCF7 breast cancer cells; assay: Antiproliferative and proapoptotic effects in MCF7 cells; format: cell-based, human; conditions: at 10 μM or lower
From the text: The chemopreventive actions exerted by green tea are thought to be due to its major polyphenol, (−)-epigallocatechin-3-gallate (EGCG). However, the low level of stability and bioavailability in the body makes administering EGCG at chemopreventive doses unrealistic. EGCG encapsulated chitosan-coated nanoliposomes (CSLIPO-EGCG) were synthesized, and their antiproliferative and proapoptotic effects in MCF7 breast cancer cells were observed.

[7] = Stability of EGCG in cell culture medium RPMI1640 at 37° C.; format: physicochemical; conditions: after 1 h incubation
Method: To determine the stability in different temperatures, NLCE, CSNLCE and native EGCG containing 100 μM of EGCG were dissolved in 1×PBS solution (pH 7.4) and incubated at 4° C., 22° C. and 37° C. for 14 d, 19 h and 3 h, respectively. To simulate the cell growth, stability was evaluated in the cell culture medium RPMI1640 at 37° C. with or without cells, and with or without superoxide dismutases (SOD, 5 U/ml).

[8] = cited from earlier work
[9] = tested on: THP-1 derived macrophages; assay: EGCG content in THP-1 derived macrophages; format: cell-based, human; conditions: 100 μM
Method: Human monocytic THP-1 cell line was purchased from the American Type Tissue Culture Collection (ATCC, Rockville, Md.) and grew in a complete medium according to ATCC instructions. The complete medium consisted of RPMI medium supplemented with 10% fetal bovine serum and 0.05 mM of 2-mercaptoethanol. The cells were incubated in a 5% CO2 atmosphere at 37° C. THP-1 cells were differentiated into macrophages by incubating them with the complete medium containing 50 ng/ml PMA for 72 h.
Macrophages derived from THP-1 cells were treated with 100 μM of NLCE, CSNLCE and native EGCG in the complete medium with or without SOD (5 U/ml). After 2 or 4 h incubation at 4° C. or 37° C., cells were washed three times with ice-cold 1×PBS. The attached cells were scraped by 200 μl of 2% ascorbic acid (pH 3) and each well was washed with 200 μl of methanol, which was then combined with 2% ascorbic acid as a mixture. The volume of mixture was measured and internal standard epicatechin was added into the mixture. After one cycle of freezing and thawing, mixtures were sonicated for 2 min in an ice-cold bath using a sonicator (Branson, Inc.). The mixture was centrifuged at 10,000×g for 20 min at 4° C. The clear supernatant solution was collected and injected into the HPLC system. Precipitates were washed with 0.5 ml of deionized water to get rid of acid and dried in the chemical hood overnight. The dried cells were digested by 0.5 N NaOH. Total cellular protein levels were determined by using a bicinchoninic acid (BCA) kit (Pierce, Cramlington). Total cellular uptake was expressed as μg of EGCG per mg of protein.

Sequence of macrophage CD36 (P16671 whole entry): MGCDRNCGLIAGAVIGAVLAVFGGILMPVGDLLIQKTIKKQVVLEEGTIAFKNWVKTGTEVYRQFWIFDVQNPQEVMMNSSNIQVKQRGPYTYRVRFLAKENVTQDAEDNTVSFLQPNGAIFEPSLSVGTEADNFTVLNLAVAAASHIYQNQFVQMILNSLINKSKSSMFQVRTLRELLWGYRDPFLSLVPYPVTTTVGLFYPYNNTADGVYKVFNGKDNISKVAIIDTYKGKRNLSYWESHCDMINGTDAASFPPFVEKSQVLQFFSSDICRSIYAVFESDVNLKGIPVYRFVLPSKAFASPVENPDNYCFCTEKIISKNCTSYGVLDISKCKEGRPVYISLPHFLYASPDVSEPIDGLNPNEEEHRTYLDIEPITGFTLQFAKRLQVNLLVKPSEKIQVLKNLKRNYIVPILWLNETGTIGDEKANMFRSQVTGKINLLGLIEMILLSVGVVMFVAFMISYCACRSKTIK

Molecule | CD36 binding affinity conferred, relative potency [1] | binding affinity to macrophage CD36 [1] | reduction of atherosclerotic lesion size [2] | apoptosis of macrophages and macrophage-derived foam cells [3] | expression and production of inflammatory factors [3] | stability in water and physiological fluid [4] | EGCG left ([5]; 100 μM, 1×PBS pH 7.4, 37° C., after 3 h) | stability in acidic pH ([5]; 100 μM, pH 1.0 to 5.0, 37° C., 3 h) | stability in neutral pH ([5]; 100 μM, pH 7.4, 37° C., after 3 h) | EGCG degraded ([5]; 4° C., after 19 hours, same initial concentration) | EGCG left ([5]; after incubating for 8 h at 23° C.) | order of stability of EGCG at the same pH ([5]; in all conditions) | antiproliferative and proapoptotic effectiveness [6] | EGCG left [7] | peak plasma EGCG concentration ([8]; after drinking 2 cups of green tea) | absolute oral bioavailability ([8]; after drinking tea containing catechins at 10 mg/kg body weight, humans and research animals) | EGCG content in macrophages ([9]; complete medium containing 5 U/ml of SOD, 2 h incubation at 37° C.) | EGCG content in THP-1 derived macrophages ([9]; complete medium without SOD, 2 h incubation at 37° C.) | EGCG content in macrophages ([9]; in the presence of SOD, after 4 h)
1-Palmitoyl-2-(11-carboxy-9-oxoundec-10-enoyl)-sn-glycero-3-phosphatidylcholine [KDdiA-PC] | more potently than any hydroperoxy phospholipid species | high binding affinity | – | – | – | – | – | – | – | – | – | – | – | – | – | – | – | – | –
5-keto-6-octendioic acid esters of 2-lyso-PC [KOdiA-PC] | – | high binding affinity | – | – | – | – | – | – | – | – | – | – | – | – | – | – | – | – | –
O=C(O[C@@H]1Cc2c(O)cc(O)cc2O[C@@H]1c1cc(O)c(O)c(O)c1)c1cc(O)c(O)c(O)c1 [EGCG, (−)-epigallocatechin-3-gallate] | – | – | 55% | induce apoptosis | inhibit | unstable | completely degraded | stable | not stable and could not be detected | 91% | 1.52% | CSNLCE>NLCE>native EGCG | doesn't have any beneficial effects | 3.7% | 0.15 µM | about 0.1% | 0.098 μg/mg protein | 0.031 μg/mg protein | 0.109 μg/mg protein
